pIC50: −log10 of the molar value.
Tested on: T1, CYP3A4/5
T1 construct: native enzymes in pooled human liver microsomes (16 samples, XenoTech); read out by testosterone 6beta-hydroxylation and midazolam 1'-hydroxylation
Experiment: testosterone 6beta-hydroxylation in human liver microsomes, HPLC-MS/MS
Type: biochemical
Conditions: direct inhibition, no pre-incubation; testosterone 100 μM (about Km); NADPH-generating system, pH 7.4, 37 °C; read-out: Direct inhibition; 0-min Pre-incubation / IC50
Excerpt: testosterone 6beta-hydroxylation in human liver microsomes, HPLC-MS/MS on CYP3A4/5

Nc1ccncc1 [4-AP]
pIC50: < 4.52

Source: PMC4937660, “In vitro evaluation of the effects of 4-aminopyridine on cytochrome P450 enzymes” (Journal of Drug Assessment, 2013)
